Test results taken from patent US4191688A, “Amides of leurosine, leuroformine, desacetylleurosine and desacetylleuroformine” (Eli Lilly and Company, priority 1978, dated 1980).
Values joined by “and” are separate entries in the source; they are usually repeats but may differ in a detail not shown here. Identical values can stand only once. Like-named read-outs stand apart in the source and are kept apart here.

What was measured:
[1] = test system: experimental malignancies; details: animals; cited from earlier work
[2] = pKa titration; type: physicochemical; details: for pKa: 66 percent dmf, in 66 percent DMF
Method: A reaction mixture containing 450 mg. of leurosine, 15 ml. of tetrahydrofurane (THF), 8 ml. of anhydrous hydrazine, and 6 ml. of methanol were heated in a sealed glass bomb for 3 days at 50° C. The bomb was opened, the solvents removed in vacuo, and the resulting residue comprising 4-desacetylleurosine C-3 carboxhydrazide formed in the above reaction, was dissolved in methylene dichloride. The methylene dichloride solution was washed with water and dried. Removal of the solvent in vacuo yielded 4-desacetylleurosine C-3 carboxhydrazide as a residue shown by TLC to contain trace quantities of leurosine and of 4-desacetylleurosine. Pure 4-desacetylleurosine C-3 carboxhydrazide (1-spot material) was prepared by chromatographing the residue over silica using 1:1:1 methylenedichloride/ethyl acetate/methanol as the eluant. Fractions shown by TLC to contain 4-desacetylleurosine C-3 carboxhydrazide were combined.
Titration; pKa at 5.3, 7.0

[3] = test system: Gardner lymphosarcoma; assay: Activity versus Gardner Lymphosarcoma in mice; type: in vivo; details: 9 days, usually intraperitoneal
Method: The following table--Table 1--gives the results of experiments in which mice bearing transplanted Gardner lymphosarcoma were treated successfully with a compound of this invention. In the table, column 1 gives the name of the compound; column 2, the dose level and column 3, the percent inhibition of tumor growth.

[4] = Stability on standing in air; type: physicochemical; details: upon standing in air
[5] = test system: tumor; details: Owellen 1975; Cullinan 1975; cited from earlier work
[6] = test system: P1534 murine leukemia; details: Hargrove, Lloydia 1964, cited from earlier work
[7] = test system: P388 leukemia; assay: Activity against P388 leukemia in mice; type: in vivo; details: 3 days apart
[8] = titration, free base, solvent not stated

Q: With CC[C@@H]1C[C@@H]2CN(CCc3c([nH]c4ccccc34)[C@@](C(=O)OC)(c3cc4c(cc3OC)N(C)[C@H]3[C@@](O)(C(=O)OC)[C@H](OC(C)=O)[C@]5(CC)C=CCN6CC[C@]43[C@@H]65)C2)C1 [deoxy VLB "A"] as the compound, how does the “activity in the treatment of experimental malignancies” value (from here on “activity in the treatment”) [1] read?
A: Its value is “active”.

Q: For CC[C@]1(O)C[C@@H]2CN(CCc3c([nH]c4ccccc34)[C@@](C(=O)OC)(c3cc4c(cc3OC)N(C)[C@@H]3[C@]45CCN4CC=C[C@@](CC)(C[C@]3(O)C(=O)OC)[C@H]45)C2)C1 [4-desacetoxy vinblastine], which “activity in the treatment” value [1] is on record?
A: Its value is “active”.

Q: Which “activity in the treatment” value [1] does the source give for CCC1(O)CN2CCc3c([nH]c4ccccc34)C(C(=O)OC)(c3cc4c(cc3OC)N(C)C3C(O)(C(=O)OC)C(OC(C)=O)C5(CC)C=CCN6CCC43C65)CC(O)(C2)C1 (stereo not shown) [leurocolombine] here?
A: The value was “active”.

Q: Which “activity in the treatment” value [1] does the source give for CCC1(O)CN2CCc3c([nH]c4ccccc34)C(C(=O)OC)(c3cc4c(cc3OC)N(C)C3C(O)(C(=O)OC)C(OC(C)=O)C5(CC)C=CCN6CCC43C65)CC(C2)C1O (stereo not shown) [vincadioline] here?
A: Its value is “active”.

Q: Which results are given for CCC12CN3CCc4c([nH]c5ccccc45)C(C(=O)OC)(c4cc5c(cc4OC)N(C)C4C(O)(C(=O)NN)C(O)C6(CC)C=CCN7CCC54C76)CC(C3)C1O2 (stereo not shown) [4-desacetylleurosine C-3 carboxhydrazide, 4-Desacetylleurosine C-3 Carboxhydrazide]?
A: pKa ([2]; read-out: pKa (first)): 5.32; pKa ([2]; read-out: pKa (second)): 7.12

Q: With CCC12CN3CCc4c([nH]c5ccccc45)C(C(=O)OC)(c4cc5c(cc4OC)N(C)C4C(O)(C(=O)NC)C(O)C6(CC)C=CCN7CCC54C76)CC(C3)C1O2 (stereo not shown) [4-Desacetylleurosine C-3 N-Methyl Carboxamide] as the compound, how does the “Percent Inhibition of tumor growth” value ([3]; 3 mg/kg per day) read?
A: The value was 33%.

Q: What about the “Percent Inhibition of tumor growth” value ([3]; 6 mg/kg per day) of the same compound?
A: The value was 100%.

Q: What about the “Toxicity (printed in Percent Inhibition column)” value ([3]; 12 mg/kg per day) of the same compound?
A: The value was “Toxic”.

Q: With CC[C@]12CN3CCc4c([nH]c5ccccc45)[C@@](C(=O)OC)(c4cc5c(cc4OC)N(C)[C@H]4[C@@](O)(C(=O)OC)[C@H](OC(C)=O)[C@]6(CC)C=CCN7CC[C@]54[C@@H]76)C[C@H](C3)[C@H]1O2 [leurosine] as the compound, how does the “activity in the treatment” value [1] read?
A: Its value is “active”.

Q: What about the auto-oxidation [4] of the same compound?
A: Its auto-oxidation is “auto-oxidizes to a 5'-hydroxy derivative”.

Q: What does the source list for CCC12CN3CCc4c([nH]c5ccccc45)C(C(=O)OC)(c4cc5c(cc4OC)N(C)C4C(O)(C(=O)NCCSSCCNC(=O)C6(O)C(O)C7(CC)C=CCN8CCC9(c%10cc(C%11(C(=O)OC)CC%12CN(CCc%13c%11[nH]c%11ccccc%13%11)CC%11(CC)OC%12%11)c(OC)cc%10N(C)C69)C87)C(O)C6(CC)C=CCN7CCC54C76)CC(C3)C1O2 (stereo not drawn) [Bis[β-(4-desacetylleurosine C-3 carboxamido)ethyl]disulfide]?
A: pKa (first) [2, 8]: 5.3; pKa (second) [2, 8]: 7.0

Q: With CC[C@@]1(O)CN2CCc3c([nH]c4ccccc34)[C@@](C(=O)OC)(c3cc4c(cc3OC)N(C)[C@@H]3[C@]45CCN4CC=C[C@@](CC)(C[C@]3(O)C(=O)OC)[C@H]45)C[C@@H](C2)C1O (stereo partly shown) [4-desacetoxy-3'-hydroxyvinblastine] as the compound, how does the “activity in the treatment” value [1] read?
A: The value was “active”.

Q: Which “Percent Inhibition of tumor growth” value ([3]; 6 mg/kg per day) does the source give for CCC12CN3CCc4c([nH]c5ccccc45)C(C(=O)OC)(c4cc5c(cc4OC)N(C)C4C(O)(C(=O)NCCO)C(O)C6(CC)C=CCN7CCC54C76)CC(C3)C1O2 (stereo not drawn) [4-Desacetylleurosine C-3 N-(β-hydroxyethyl)carboxamide] here?
A: Its value is 100%.

Q: And the “Percent Inhibition of tumor growth” value ([3]; 12 mg/kg per day)?
A: Its value is 100% and 98%.

Q: For CCC1(O)CC2CN(CCc3c([nH]c4ccccc34)C(C(=O)OC)(c3cc4c(cc3OC)N(C)C3C(O)(C(=O)OC)C(O)C5(CC)C=CCN6CCC43C65)C2)C1 (stereo not shown) [4-desacetyl VLB], which anti-tumor activity [5] is on record?
A: Its anti-tumor activity is “active anti-tumor agent”.

Q: What about the toxicity [6] of the same compound?
A: The toxicity was “toxic material”.

Q: And the “in vivo chemotherapeutic activity” value ([6]; P1534 murine leukemia system)?
A: The value was “little in vivo chemotherapeutic activity”.

Q: With CCC12CN3CCc4c([nH]c5ccccc45)C(C(=O)OC)(c4cc5c(cc4OC)N(C)C4C(O)(C(N)=O)C(O)C6(CC)C=CCN7CCC54C76)CC(C3)C1O2 (stereo not shown) [4-desacetylleurosine C-3 carboxamine, 4-Desacetylleurosine C-3 Carboxamide] as the compound, how does the “Percent Inhibition of tumor growth” value ([3]; 3 mg/kg per day) read?
A: The value was 23%.

Q: What about the “Percent Inhibition of tumor growth” value ([3]; 6 mg/kg per day) of the same compound?
A: Its value is 100%.

Q: And the “Toxicity (printed in Percent Inhibition column)” value ([3]; 12 mg/kg per day)?
A: The value was “Toxic”.

Q: Which “activity in the treatment” value [1] does the source give for CCC1(O)CC2CN(CCc3c([nH]c4ccccc34)C(C(=O)OC)(c3cc4c(cc3OC)N(C)C3C(O)(C(=O)OC)C(OC(C)=O)C5(CC)C=CCN6CCC43C65)C2)C1 (stereo not shown) [vincaleukoblastine] here?
A: Its value is “active”.

Q: For CCC12CN3CCc4c([nH]c5ccccc45)C(C(=O)OC)(c4cc5c(cc4OC)N(C=O)C4C(O)(C(N)=O)C(O)C6(CC)C=CCN7CCC54C76)CC(C3)C1O2 (stereo not shown) [4-desacetylleuroformine C-3 carboxamide, 4-Desacetylleuroformine C-3 Carboxamide], which “Percent Inhibition of tumor growth” value ([3]; 12 mg/kg per day) is on record?
A: The value was 39%.

Q: Which “activity in the treatment” value [1] does the source give for CCC12CN3CCc4c([nH]c5ccccc45)C(C(=O)OC)(c4cc5c(cc4OC)N(C=O)C4C(O)(C(=O)OC)C(OC(C)=O)C6(CC)C=CCN7CCC54C76)CC(C3)C1O2 (stereo not shown) [leuroformine] here?
A: The value was “active”.

Q: Which “activity in the treatment” value [1] does the source give for CCC1(O)CC2CN(CCc3c([nH]c4ccccc34)C(C(=O)OC)(c3cc4c(cc3OC)N(C=O)C3C(O)(C(=O)OC)C(OC(C)=O)C5(CC)C=CCN6CCC43C65)C2)C1 (stereo not shown) [leurocristine] here?
A: Its value is “active”.

Q: Which “prolongation of survival time” value ([7]; 15 mg/kg on three occasions) does the source give for CCC12CN3CCc4c([nH]c5ccccc45)C(C(=O)OC)(c4cc5c(cc4OC)N(C)C4C(O)(C(=O)NCCSSCCNC(=O)C6(O)C(O)C7(CC)C=CCN8CCC9(c%10cc(C%11(C(=O)OC)CC%12CN(CCc%13c%11[nH]c%11ccccc%13%11)CC%11(CC)OC%12%11)c(OC)cc%10N(C)C69)C87)C(O)C6(CC)C=CCN7CCC54C76)CC(C3)C1O2 (stereo not drawn) [Bis[β-(4-desacetylleurosine C-3 carboxamide)ethyl]disulfide disulfate] here?
A: Its value is 55%.

Q: And the “prolongation of survival time” value ([7]; 30 mg/kg on three occasions)?
A: The value was 46%.
